The text below walks through data of patent publication US20220193185A1, “COMBINATION OF SYNTHETIC PEPTIDES WITH AFFINITY TO THE TGF-ß RECEPTOR AND WITH AFFINITY TO THE IL-10 RECEPTOR, PHARMACEUTICAL COMPOSITION AND THEIR USE AS IMMUNOMODULATORS IN THE TREATMENT OF AUTOIMMUNE, INFLAMMATORY OR ALLERGIC DISEASES” (Universidade Federal de Uberlândia, priority 2019, published 2022).

Bridges are numbered along the chain shown (N, C = ends). Where no end group is shown, it is not given here.

Series [1] deals with rat basophilic leukemia cells transfected with the human FIϵRI IgE receptor (hRBL). Nature of the series: IgE-mediated release in hRBL cells sensitized with serum from patients allergic to birch pollen, Bet v 1. Format: cell-based. The settings on record: Pep 1-IL-10 at 1 μM; serum from seven birch pollen allergic donors. On the procedure: The effect of IL-10 mimetic peptides on IgE-mediated release was examined using rat basophilic leukemia cells transfected with the human FIϵRI IgE receptor (hRBL). As an example, we selected as an example Pep 1-IL-10 to show the data obtained. The hRBL cells were sensitized with serum from seven patients allergic to birch pollen. Cells were stimulated with the antigen and its interaction with immobilized IgEs caused a release of b-hexosaminidase.
When cells were treated with a composition comprising Pep 1-IL-10 at 1 μM (FIG. 21A) or rIL10 (FIG. 21B), the amount of Bet v 1 needed to induce the same amount of degranulation was higher when compared to cells treated only with Bet vl (P<0.05). Amount of rBet v 1 (ng/mL) required to induce half the release of b-hexosaminidase using serum from seven birch pollen allergic donors after treatment with Pep 1-IL-10 (A) (P<0.05) and rIL10 (B)*P<0.05.

Series [2] deals with NFkB pathway. Nature of the series: NFkB expression in Jurkat-Dual reporter cells, luciferase (IL-10 mimetic peptides). The settings on record: for concentrations with statistically significant decrease of NFKB activation: peptide pretreatment 1 hour, then TNF-α 200 ng/ml. The class given is cell-based. The protocol:
(§1) In order to investigate the ability of synthetic peptides with affinity to the Interleukin-10 receptor to interfere in the NFkB, IFN and TLR4 pathways, reporter cell lines were used. To analyze whether the isolated peptides (without activation molecules) could induce any type of activation, the isolated peptides were tested in cell lines during 12, 24 and 48 hours of treatment. […] As an example, FIG. 13A, FIG. 13B, and FIG. 13C show an analysis of NFkB expression after stimulation with the synthesized IL-10 receptor affinity synthetic peptides described herein. Cells were treated for 12, 24 and 48 hours with the synthesized peptides Pep 1-IL10, Pep 2-IL10, Pep 3-IL10 and Pep 4-IL10, at different concentrations, without activating molecules. Luciferase was then measured after 12 hours of treatment (FIG. 13A), 24 hours of treatment (FIG. 13B) and 48 hours of treatment (FIG. 13C). […] TNF-α (200 ng/mL) was used as a positive control.
The assay was then carried out using TNF-α as activation molecule not only in the control, but after a pretreatment with the synthesized peptides Pep 1-IL10, Pep 2-IL10, Pep 3-IL10 and Pep 4-IL10, at different concentrations. All peptides were able to modulate NFKB activation after 12, 24 and 48 hours, with different results depending on the concentrations used. […] In the assays shown by FIGS. 14 A, B and C, analysis of NFkB expression was performed in Jurkat-Dual reporter cells. Cells were treated for 1 hour with peptides and TNF-α (200 ng/ml) added. Luciferase was measured after 12 hours of treatment (FIG. 14A), 24 hours of treatment (FIG. 14B) and 48 hours of treatment (FIG. 14C).
Another assay was then performed in which cells were pretreated with TNF-α and the synthesized peptides Pep 1-IL10, Pep 2-IL10, Pep 3-IL10 and Pep 4-IL10, at different concentrations, were added later. All peptides were able to modulate NFKB activation after 12, 24 and 48 hours, with different results depending on the concentrations used. The most significant results will be described below. […] After 48 hours of treatment, Pep 1-IL-10 at a concentration of 0.001 μM (P<0.05) was the one that obtained a result with the highest statistical significance in the decrease of NFKB signaling (FIG. 15C). In the assays shown by FIGS. 15 A, B and C, analysis of NFkB expression was performed in Jurkat-Dual reporter cells. Cells were treated for 1 hour with TNF-α (200 ng/ml) and peptides were added. Luciferase was measured after 12 hours of treatment (FIG. 15A), 24 hours of treatment (FIG. 15B) and 48 hours of treatment (FIG. 15C). TNF-α (200 ng/mL) was used as a positive control and rlL-10 (recombinant Interleukin-10) (0.4 ng/mL) as a negative control. *P<0.05; **P<0.005; ***P<0.0005.

Series [3] deals with IFN signaling pathway. Nature of the series: IFN signaling pathway in Jurkat-Dual reporter cells, SEAP production. The class given is cell-based. The settings on record: after 12, 24 and 48 hours; results depend on concentration. On the procedure:
as §1
The most significant results will be described below. […] When cells were pretreated with IFN, although peptides at some concentrations indicated results, they were not statistically sufficient. Therefore, we cannot confirm whether they were able to interfere with pathway activation (FIGS. 17 A, B and C) in an equal or better way than the negative control (rIL-10). In the assays shown by FIGS. 16 (A, B and C) and FIGS. 17 (A, B and C), analysis of IFN expression was performed in Jurkat-Dual reporter cells. In the assays shown by FIGS. 16 A, B and C, cells were treated for 1 hour with peptides with further addition of IFN-α (104 EU/ml). Secreted Embryonic Alkaline Phosphatase (SEAP) production was measured after 12 hours of treatment (FIG. 16A), 24 hours of treatment (FIG. 16 B) and 48 hours of treatment (FIG. 16 C). In the assays shown by FIGS. 17A, B and C, cells were treated for 1 hour with IFN-α (104 EU/ml) with further addition of the peptides. SEAP production was measured after (A) 12 hours of treatment (B), 24 hours of treatment and (C) 48 hours of treatment. IFN-α (104 EU/ml) was used as a positive control and rlL-10 (0.4 ng/ml) as a negative control. *P<0.05.

Series [4] can be described thus: aggregation behavior in solution by Dynamic Light Scattering (DLS). The class given is physicochemical. Conditions: IL-10 mimetic peptides in solution.
The subject of series [5] is J774 cell line. Nature of the series: cytokine production after treatment of the J774 cell line. The class given is cell-based. On the procedure:
After 24 hours of treatment, the levels of IL-6, MCP-1 and TNF-α produced were measured.
Decreases were significant compared to cells treated with LPS alone (positive control). *P<0.05; **P<0.005; ***P<0.0005.

Series [6] deals with IL-8 gene expression. Put plainly: luciferase reporter under control of the IL-8 promoter in TNF-α stimulated A549 cells. Format: cell-based, human. The source says: First, we tested the ability of the synthesized peptides to recognize TGF^RII on the surface of Jurkat cells, immortalized human T lymphocytes, using ELISA. The recombinant TGFβ (rTGFβ1) was used as a positive control. […] To investigate IL-8 cytokine production, we used an immortalized human lung epithelial cell line (A549), which plays an important role in the first defense line to foreign compounds. […] A mediator release assay, based on rat basophilic leukemia (RBL) cells bearing humanized FIERI receptor, was performed to investigate the effect of the synthesized peptides on IgE-mediated degranulation of basophils in an already sensitized system. This sensitive cell-based assay may help to understand the action of the mimetic peptide in an established allergic microenvironment.
Background: In a reporter assay the amount or activity of a reporter protein is the signal.

Series [7] concerns Jurkat cells. Put plainly: cytokine secretion in MMA-stimulated Jurkat cells. Format: cell-based, human.
Setting [8] is: peptide followed by LPS, 24 hours.

Turning to “Pep 1-IL-10: synthetic peptide with affinity to the Interleukin-10 receptor, SEQ ID 09, with disulfide bridges (HACSAVIKSSCGGGS; disulfide 3-11 (inferred))”, the “amount of Bet v 1 needed to induce the same amount of degranulation (half the release of b-hexosaminidase) vs Bet v 1 only” value in series [1] is “higher”. Besides, the “concentration with highest statistical significance in the decrease of NFKB signaling” value in series [2] (cells pretreated 1 hour with TNF-α 200 ng/ml, peptides added, 48 hours) came to 0.001 µM. Moreover, the “concentrations with statistically significant decrease of NFKB activation” value in series [2] (12 hours), in series [2] (24 hours) and in series [2] (48 hours) was “all concentrations tested” each time. Besides, the “induction of NFkB expression by peptides alone” value in series [2] (without activating molecules, 12, 24 and 48 hours, different concentrations) is on record as “not able to induce any response”. In addition, in series [3], the “modulation of the activation of the IFN signaling pathway” value is given as “able to modulate the activation of the IFN signaling pathway”. In series [4], this substance returned a measured hydrodynamic radius of 0.82 nm. Besides, in series [5] (24 hours of treatment), the “production of IL-10, IFN-g or IL12p70” value is recorded as “No interference”. In series [5] (peptide followed by LPS for 24 hours), the “production of IL-6, MCP-1 and TNF-α” value is “able to decrease”. Further, in series [5] (setting [8]), the “concentrations that significantly reduced IL-6 levels vs LPS alone” value is 1 μM, 10 μM and 100 μM. Also, in series [5] (setting [8]), the “concentrations that significantly reduced MCP-1 levels vs LPS alone” value was 1 µM and 10 µM. Besides, the “concentrations that significantly reduced TNF-α levels vs LPS alone” value in series [5] (setting [8]) is 1 μM, 10 μM and 100 μM. In addition, in series [5] (without LPS stimulation, 24 hours), the “cytokine response to peptide alone” value is “unable to induce any response”.
With “rTGFβ: recombinant TGFβ (rTGFβ1) used as a positive control”, the “IL-8 gene expression (luciferase reporter)” value in series [6] was “decreased IL-8 gene expression”. Further, in series [7], the IL-10 secretion result is given as “increased IL-10 secretion” and the TNF-α secretion result is given as “significantly decreased TNF-α secretion”.
